Data: the SangsterLogP compilation

Row | logP | SMILES
1 | 3.36 | CCCCOC(=O)CCCC
2 | 1.55 | CCOC(=O)C(C)C
3 | 2.3 | CCCCC(=O)OCC
4 | 0.27 | CCOC=O
5 | 2.04 | CCCC(=O)CCC
6 | 2.42 | CCCCCC(=O)OC
7 | 5.19 | CCC(C)(C)CC
8 | 1.71 | CCCC(=O)OCC
9 | 2.15 | CCCOC(=O)CCC
10 | 1.57 | CCC(=O)OC(C)C
11 | 3.87 | CCCCCCCCC(=O)OC
12 | 2.88 | CCCCC(=O)CCCC
13 | 1.71 | CCCOC(=O)CC
14 | 1.53 | CCCC(C)(C)O

The next lines start with the molecule.

Row | SMILES | logP
15 | CCCCCI | 3.62
16 | CCN1CCCCC1 | 1.88
17 | CCCCCCl | 3.11
18 | CCCCCCI | 4.16
19 | CCCCCCCCCCBr | 6
20 | CC(=O)OC(C)C | 1.02
21 | CCCCCCCCCCc1ccccc1 | 7.4
22 | CCCCCCCCCCCCCC | 8
23 | CCCI | 2.54
24 | C#CCCCCCC | 3.92
25 | CC(C)Br | 2.1
26 | OC1CCCCCCC1 | 2.39
27 | C=CCCC | 2.8
28 | ClCC(Cl)(Cl)Cl | 2.66
29 | C=CCC=CC | 3.16
30 | C#CCCCCCCC | 4.51
31 | CCCCCCCl | 3.66
32 | CC1CCCO1 (centres undefined) | 1.25
33 | CC(C)C(C)(C)O | 1.48
34 | CCCCF | 2
35 | CC(C)CCl | 2.39
36 | CCCCI | 3.08
37 | CCC(C)(C)c1ccc(O)cc1 | 3.83
38 | C#CCC | 1.46
39 | CCCCCCCCCl | 4.73
40 | CCCCCCCCC | 5.65
41 | C#CCCCCC | 3.32
42 | ClCCCCCl | 2.24
43 | OC1CCCCCC1 | 1.83
44 | CC(C)CBr | 2.53
